We go through 7 molecules from patent US11926634B2, “Processes for the preparation of selective estrogen receptor degraders” (Eli Lilly and Company, priority 2022, dated 2024).

As usually defined, the IC50 is the concentration that inhibits the measured activity by half.

The test deals with T1, hERα (Homo sapiens, UniProt P03372).
T1 construct: ERα degradation High Content Imaging assays in MCF7 ESR1 Wild Type cells; endogenous in cells; host or cells: MCF7 (ESR1 wild type)
T1 sequence (P03372 1-595): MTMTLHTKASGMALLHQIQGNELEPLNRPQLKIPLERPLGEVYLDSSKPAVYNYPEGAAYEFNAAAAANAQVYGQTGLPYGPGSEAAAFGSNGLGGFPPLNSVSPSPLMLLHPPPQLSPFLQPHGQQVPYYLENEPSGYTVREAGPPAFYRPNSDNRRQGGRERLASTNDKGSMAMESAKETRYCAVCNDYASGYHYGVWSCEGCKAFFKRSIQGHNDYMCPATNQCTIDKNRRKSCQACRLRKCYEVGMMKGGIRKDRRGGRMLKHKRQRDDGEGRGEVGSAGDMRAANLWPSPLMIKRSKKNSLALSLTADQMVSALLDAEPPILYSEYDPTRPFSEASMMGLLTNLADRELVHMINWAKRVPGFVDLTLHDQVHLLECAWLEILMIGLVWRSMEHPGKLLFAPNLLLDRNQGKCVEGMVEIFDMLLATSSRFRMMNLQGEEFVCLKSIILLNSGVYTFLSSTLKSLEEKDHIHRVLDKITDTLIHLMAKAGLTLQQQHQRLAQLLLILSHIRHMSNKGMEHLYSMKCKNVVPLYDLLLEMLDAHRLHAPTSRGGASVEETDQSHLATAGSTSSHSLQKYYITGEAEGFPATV
The experiment in a line: ERα degradation high content imaging assay in MCF7 cells. In kind it is cell-based. To be noted: MCF7 ESR1 Wild Type cells; output % estrogen receptor positive cells; read-out: Relative IC50 (μM), hERα Degradation Cell Assay in MCF7 Cells. As to the method: Cells were fixed by adding 14% paraformaldehyde (10 μL) for 30 min at RT. The cells were washed once with PBS (20 μL) and incubated with PBS (20 μL per well) containing 0.5% (v/v) TWEEN® 20 for 1 h. Cells were washed with PBS containing 0.05% TWEEN® 20 (2×) and blocked with 3% BSA in PBS containing 0.05% TWEEN® and 0.1% TRITON™ X-100 (20 μL/well) for 1 h at RT. A 1:500 dilution of Primary antibody (20 μL) (ERα (Clone SP1) monoclonal rabbit antibody #RM-9101-S, Thermo Scientific) in 1% BSA in PBS containing 0.05% TWEEN® 20 was added, the plates were sealed and incubated overnight at 4° C. The following day the cells were washed with PBS containing 0.05% TWEEN® 20 (2×) and incubated with secondary antibody ([…]) (1:1000 dilution, Goat anti-rabbit IgM ALEXA FLUOR™ 488) in PBS 1% BSA for 105 min at RT. After incubation plates were washed with PBS (2×20 μL), and PBS (20 μL) containing RNase (Sigma) (50 μg/mL) and 1:1000 propidium iodide dilution was added per well. Plates were sealed and incubated 1 h at RT (preserved from light). The plates were scanned with ACUMEN EXPLORER™ [Laser-scanning fluorescence microplate cytometer manufactured by TTP LABTECH LTD] to measure ERa. Image analysis was based on cellular fluorescent signals for identifying positive cells. Estrogen receptor positive cells were identified by mean intensity. Total intensity at 575-640 nm from propidium iodide/DNA was used to identify individual cells. Assay output was % estrogen receptor positive cells. The IC50 was determine by curve fitting to a four-parameter logistic for each output using GENE DATA™. Raw data (FLU) were plotted as nonlinear regression through […]© tool. Data was analyzed using a 4-parameter nonlinear logistic equation (four-parameter logistic concentration-response curve): Y=bot+[(top-bot)/1+(x/IC50) slope] where Y=% inhibition, x=concentration yielding y % inhibition, Bottom=minimum value of y attained by curve, Top=maximum value of y attained by curve and Slope=steepness of curve at IC50. % Inh=[(median Max−x/median Max−median Min)]×100.

Regarding `CCOC(COc1ccc(C(=O)c2c(-c3ccc(C(F)(F)F)cc3F)cnc3cc(O)ccc23)cc1)OCC`, the DC50 is over 2 µM.

Consider `O=C(c1ccc(OCCN2CC(CF)C2)cc1)c1c(Cl)cnc2cc(O)ccc12`, for which the DC50 stood at 0.126 ± 0.0442 µM.

As for `O=C(c1ccc(OCCN2CC(CF)C2)cc1)c1c(-c2ccc(C(F)(F)F)cc2F)cnc2cc(O)ccc12`, the IC50 was 0.00216 µM.

On to `CCOC(COc1ccc(C(O)c2c(-c3ccc(C(F)(F)F)cc3F)cnc3cc(O)ccc23)cc1)OCC` (stereo not shown), for which the DC50 was over 2 µM.

Take `Oc1ccc2c(C(O)c3ccc(OCCN4CC(CF)C4)cc3)c(-c3ccc(C(F)(F)F)cc3F)cnc2c1` (stereo not shown): the DC50 is 0.278 ± 0.126 µM.

Take `CCOC(COc1ccc(C2Oc3cc(C(F)(F)F)ccc3-c3cnc4cc(O)ccc4c32)cc1)OCC` (stereo not shown): the DC50 is over 2 µM.

`O=CCOc1ccc(C2Oc3cc(C(F)(F)F)ccc3-c3cnc4cc(O)ccc4c32)cc1` (stereo not shown): the DC50 was over 2 µM.
